Values after ≈ are worked out from the molar mass of the structure shown.

The values below come from patent US4316898A, “Cephalosporins” (Boehringer Ingelheim KG, priority 1979, dated 1982).

The subject of test [1] is Proteus mirabilis Hamburgensis. The test is described as follows: Serial dilution test in the microtiter system, MIC against Proteus mirabilis Hamburgensis. It counts as cell-based. Particulars: minimum inhibitory concentration, 37° C., 18 to 20 hours, read-out: MIC, Prot. Mir. Hbg. How it is done:
(§1) The tests were performed using the serial dilution test in the microtiter system. The effect of the test compounds on bacteriostasis was examined at the following concentrations: 80, 40, 20, 10, 5, 2.5, 1.25, 0.6, 0.3, 0.08 and 0.02 μgm/ml. The nutrient medium consisted of 10 gm of peptone, 8 gm of meat extract oxoid, 3 gm of sodium chloride, and 2 gm of sec. sodium phosphate diluted with distilled water to […] (pH 7.2-7.4). Only in the test against streptococci 1% of glucose was added. The age of the primary cultures was approximately 20 hours. The standardization of the bacteria suspension was effected using a photometer according to the method of Eppendorf (test tube .phi. 14 mm, filter 546 nm), using for comparison a barium sulfate suspension formed by the addition of 3.0 ml of 1% barium chloride solution to 97 ml of 1% sulfuric acid. After the standardization,Streptococcus aronson was further diluted to a concentration of 1:15, and the other bacteria to a concentration of 1:1500, using a sodium chloride solution.
(§2) 16 mgm of the particular test compound were put into a 10 ml measuring flask, and the flask was subsequently filled to the mark with solvent. The further dilution series was standardized with distilled water or the appropriate solvent.
(§3) The cavities of the microtiter plates were filled with 0.2 ml of nutrient medium. 0.01 ml of the appropriate test compound solution was then added, followed by inoculation with 0.01 ml of the standardized bacteria suspension. The bacteria were incubated at 37° C. for 18 to 20 hours. Control tests using only the solvent were carried out simultaneously.
(§4) The measurement was carried out macroscopically to determine the minimum inhibitory concentration (the lowest still bacteriostatically effective concentration).
(§5) The following test organisms were used:
(§6) Staphylococcus aureus SG 511, St. aureus E 88 (β-lactamase carrier), Escherichia coli ATCC 11 775, Pseudomonas aeruginosa Hamburgensis and Pseudomonas aeruginosa Walter, Serratia macrescens ATCC 13 880, Klebsiella pneumoniae ATCC 10 031 and 272, Proteus mirabilis Hamburgensis, Proteus rettgeri Eb. cloaceae ATCC 13047, and E. coli R+TEM (β-lactamase carrier).
(§7) The following tables show the determined minimum inhibitory concentrations (MIC) for a few representative compounds (E=Na) of the present invention, and two known cephalosporins for comparison: […]

The subject of test [2] is Serratia macrescens ATCC 13 880. Description: Serial dilution test in the microtiter system, MIC against Serratia marcescens ATCC 13880. The format is cell-based. Particulars: read-out: MIC, Serr. marcesc. ATCC 13880. On the procedure: as §1, §2, §3, §4, §5, §6, §7
The next test relates to E. coli ATCC 11775. The test is described as follows: In vivo test in mice against experimental E. coli infection. The arrangement: species or system Female NMRI mice. Particulars: Escherichia coli, ATCC11775, sc, 168 h; subcutaneous; per dose; dose at which 50% of the animals survived; observation 7 days. How it is done: (§8) A series of the compounds according to the invention was tested in vivo in mice against experimental infections. As pathogenic bacteria were used E. coli ATCC 11775 and Pseudomonas aeruginosa Walter. An intraperitoneal infection was induced in each mouse with 0.2 ml of a 5% mucin suspension of the bacteria corresponding of approximately 1.4×10^6 E. coli cells and 1.3×10^6 Pseudomonas cells per mouse. Female NMRI mice were used, divided into groups of 10 animals. Two groups were untreated and the remaining groups were treated with different doses of the cephalosporins to be tested to determine the ED50 (dose at which 50% of the animals survived). The groups infected with E. coli were on the first day treated with the test compound three times ([…] post infectionem) and on the second day twice. The groups with the Pseudomonas infection were on the first day treated with the test compound six times (1, 3, 5, 7, 9 and 11 hours post infectionem), and on the following two days twice.
(§9) The observation time was in both cases 7 days.

Test [3] relates to Staphylococcus aureus SG 511. The test is described as follows: Serial dilution test in the microtiter system, MIC against S. aureus SG 511. It counts as cell-based. The following applies: SG511, minimum inhibitory concentration, 37° C., 18 to 20 hours. On the procedure: as §1, §2, §3, §4, §5, §6, §7
Another test deals with E. coli R+TEM. The test is described as follows: Serial dilution test in the microtiter system, MIC against E. coli R+TEM (β-lactamase carrier). The format is cell-based. Particulars: Escherichia coli, read-out: MIC, E. coli R + TEM. How it is done: as §1, §2, §3, §4, §5, §6, §7
The next test concerns Eb. cloaceae ATCC 13047. The test is described as follows: Serial dilution test in the microtiter system, MIC against Eb. cloaceae ATCC 13047. The format is cell-based. Particulars: minimum inhibitory concentration; 37° C., 18 to 20 hours. How it is done:
as §1, §2, §3, §4, §5, §6, §7

Test [4] relates to Escherichia coli ATCC 11 775. Description: Serial dilution test in the microtiter system, MIC against E. coli ATCC 11775. It counts as cell-based. Particulars: minimum inhibitory concentration, 37° C., 18 to 20 hours. On the procedure:
as §1, §2, §3, §4, §5, §6, §7

The next test relates to St. aureus E 88. Description: Serial dilution test in the microtiter system, MIC against S. aureus E 88 (β-lactamase carrier). The following applies: Staphylococcus aureus, E88, minimum inhibitory concentration, 37° C., 18 to 20 hours. The format is cell-based. On the procedure:
as §1, §2, §3, §4, §5, §6, §7

Test [5] deals with Klebsiella pneumoniae 272. Description: Serial dilution test in the microtiter system, MIC against Klebsiella pneumoniae 272. It counts as cell-based. The following applies: minimum inhibitory concentration, 37° C., 18 to 20 hours, read-out: MIC, Klebs. pneum. 272. How it is done:
as §1, §2, §3, §4, §5, §6, §7

In test [6] the test system is Pseudomonas aeruginosa Walter. Description: In vivo test in mice against experimental Pseudomonas infection. More on the design: species or system Female NMRI mice. The following applies: subcutaneous, observation 7 days; for ED50: Pseudomonas aeruginosa, sc, 168 h, per dose, dose at which 50% of the animals survived. How it is done: as §8, §9
In test [7] the test system is Pseudomonas aeruginosa Walter. The test is described as follows: Serial dilution test in the microtiter system, MIC against Pseudomonas aeruginosa Walter. Particulars: minimum inhibitory concentration, 37° C., 18 to 20 hours, read-out: MIC, Pseud. aerug. Walter. The format is cell-based. How it is done:
as §1, §2, §3, §4, §5, §6, §7

Test [8] concerns Pseudomonas aeruginosa Hamburgensis. Description: Serial dilution test in the microtiter system, MIC against Pseudomonas aeruginosa Hamburgensis. The following applies: minimum inhibitory concentration, 37° C., 18 to 20 hours, read-out: MIC, Pseud. aerug. Hbg. The format is cell-based. How it is done: as §1, §2, §3, §4, §5, §6, §7
Test [9] has as its system Klebsiella pneumoniae ATCC 10 031. Description: Serial dilution test in the microtiter system, MIC against Klebsiella pneumoniae ATCC 10031. It counts as cell-based. Particulars: minimum inhibitory concentration, 37° C., 18 to 20 hours, read-out: MIC, Klebs. pneum. ATCC 10031. How it is done: as §1, §2, §3, §4, §5, §6, §7
The subject of a further test is Proteus rettgeri. The test is described as follows: Serial dilution test in the microtiter system, MIC against Proteus rettgeri. The format is cell-based. The following applies: Providencia rettgeri; minimum inhibitory concentration; 37° C., 18 to 20 hours; read-out: MIC, Prot. rettg. On the procedure:
as §1, §2, §3, §4, §5, §6, §7

For the molecule `Cn1nnnc1SCC1=C(C(=O)O)N2C(=O)[C@@H](NC(=O)[C@H](NC(=O)Nc3cnc(C4CC4)nc3O)c3ccc(O)cc3)[C@H]2SC1` [A], the MIC in [1] stood at 0.5 µg/mL (≈ 0.764 µM); in test [2], 2 µg/mL (≈ 3.05 µM); in [3], 0.5 µg/mL (≈ 0.764 µM); in the test on E. coli R+TEM it was 8 µg/mL; in the test on Eb. cloaceae ATCC 13047, 2 µg/mL (≈ 3.05 µM); in test [4], 0.5 µg/mL (≈ 0.764 µM). In addition, the minimal inhibitory concentration (MIC) in the test with St. aureus E 88 worked out at 8 µg/mL (≈ 12.2 µM); in test [5] it was 1 µg/mL (≈ 1.53 µM); in [7] it was 8 µg/mL (≈ 12.2 µM); in [8] it was 8 µg/mL (≈ 12.2 µM); in test [9], 1 µg/mL (≈ 1.53 µM); with Proteus rettgeri, 2 µg/mL (≈ 3.05 µM). The ED50 is 1.6 mg/kg with E. coli ATCC 11775 and 15.2 mg/kg in test [6].
For the molecule `CCCNc1ncc(NC(=O)N[C@@H](C(=O)N[C@@H]2C(=O)N3C(C(=O)O)=C(CSc4nnnn4C)CS[C@H]23)c2ccc(O)cc2)c(O)n1` [B], the MIC in [1] came out at 0.25 µg/mL (≈ 0.372 µM); in test [2], 1 µg/mL (≈ 1.49 µM); in [3] it was 1 µg/mL (≈ 1.49 µM); in the test with E. coli R+TEM it was 8 µg/mL; in the test with Eb. cloaceae ATCC 13047, 1 µg/mL (≈ 1.49 µM); in test [4], 0.5 µg/mL (≈ 0.744 µM). For the same molecule, the MIC was 8 µg/mL (≈ 11.9 µM) in the test on St. aureus E 88; 0.5 µg/mL (≈ 0.744 µM) in test [5]; 8 µg/mL (≈ 11.9 µM) in test [7]; 4 µg/mL (≈ 5.95 µM) in test [8]; 0.5 µg/mL (≈ 0.744 µM) in [9]; 1 µg/mL (≈ 1.49 µM) in the test on Proteus rettgeri. Besides, the results for the ED50 (in the test on E. coli ATCC 11775; in test [6]) were 1.1 mg/kg and 12.4 mg/kg, respectively.
For the molecule `Cn1nnnc1SCC1=C(C(=O)O)N2C(=O)[C@@H](NC(=O)[C@H](NC(=O)Nc3cnc(NC4CCC(O)CC4)nc3O)c3ccc(O)cc3)[C@H]2SC1` (some centres unmarked) [C], the minimum inhibitory concentration (MIC) in test [1] stood at 0.13 µg/mL (≈ 0.179 µM); in [2] it was 0.5 µg/mL (≈ 0.687 µM); in [3], 1 µg/mL (≈ 1.37 µM); in the test with E. coli R+TEM, 8 µg/mL; against Eb. cloaceae ATCC 13047, 0.5 µg/mL (≈ 0.687 µM); in test [4], 0.13 µg/mL (≈ 0.179 µM). Also, the minimum inhibitory concentration (MIC) with St. aureus E 88 was determined as 8 µg/mL (≈ 11 µM); in test [5], 0.5 µg/mL (≈ 0.687 µM); in test [7] it was 4 µg/mL (≈ 5.5 µM); in test [8], 4 µg/mL (≈ 5.5 µM); in test [9] it was 0.5 µg/mL (≈ 0.687 µM); with Proteus rettgeri, 1 µg/mL (≈ 1.37 µM). In addition, the median effective dose (ED50) is 0.4 mg/kg with E. coli ATCC 11775 and 4.2 mg/kg in test [6].
Regarding `CO/N=C(\C(=O)N[C@@H]1C(=O)N2C(C(=O)O)=C(COC(N)=O)CS[C@H]12)c1ccco1` [Cefuroxim, reference compound], the MIC in test [1] is 0.5 µg/mL (≈ 1.18 µM); in [2], 8 µg/mL (≈ 18.9 µM); in test [3], 1 µg/mL (≈ 2.36 µM); in the test on E. coli R+TEM, 4 µg/mL; in the test with Eb. cloaceae ATCC 13047, 32 µg/mL (≈ 75.4 µM); in test [4], 8 µg/mL (≈ 18.9 µM). Further, the MIC against St. aureus E 88 is 16 µg/mL (≈ 37.7 µM); in [5], 4 µg/mL (≈ 9.43 µM); in [7] it was greater than 100 µg/mL; in test [8], greater than 100 µg/mL; in [9], 2 µg/mL (≈ 4.71 µM); in the test with Proteus rettgeri, 2 µg/mL (≈ 4.71 µM). In the test with E. coli ATCC 11775, this molecule came in with a 50% effective dose (ED50) of 37 mg/kg. For the same molecule, the “Mortality, Pseudomonas infection” value in test [6] (at 200 mg/kg per dose) was “all animals died”.
